The results in this text go back to patent US5728686A, “Alkylxanthine phosphonates and alkylxanthine phosphine oxides and their use as pharmaceuticals” (Hoechst Aktiengesellschaft, priority 1996, dated 1998).

Assay [1] deals with Endotoxin (LPS) from Salmonella abortus equi. Description: effect on endotoxin fatality (LPS-induced septic shock). The format is in vivo, female NMRI mice. The note with it: 25 mg/kg i.p. at the same time as LPS 60 mg/kg i.p.; 72 hours; vs placebo control. As to the method: 2. Test for effect on endotoxin fatality
Individual injections of lipopolysaccharide (LPS), from gram-negative bacteria, lead via a series of various symptoms to septic shock, which usually turns out to be fatal. Endotoxin (LPS) from Salmonella abortus equi in a dose of 60 mg/kg i.p. leads to shock and to death with at most 72 h p.a. (the dose of 60 mg/kg corresponds to approximately 1.20 mg of LPS/animal).
The experimental animals used are female NMRI mice from the Hoechst AG/Hattersheim animal breeding unit having a body weight of 22 to 24 g.
The test substances administered intraperitoneally (i.p.) in an administration volume of 10 ml/kg at the same time as the LPS. The number of surviving animals after 72 hours' LPS administration is indicated in comparison to a placebo control. The number of tested animals per group is 5; dose 25 mg/kg.

The subject of assay [2] is isolated guinea pig trachea, agonist calcium ionophore A23187. Description: antagonist of calcium ionophore A23187-induced contraction of isolated guinea pig trachea. As to conditions: Cavia porcellus, 37° C., read-out: Anticontractile action (trachea), Ca ionophore: concentration range for dilatation corresponding to ED50 range. The format is cell-based. The text has this: (§1) 3. Activity as antagonist of the contraction of isolated guinea pig trachea
(§2) The compounds of the formula I are used as antagonists of the contraction of isolated guinea pig trachea. The agonists employed were PGF2α (Upjohn, Germany), calcium ionophore A23187 (Calbiochem, Bad Soden, Germany), and substance P (American Peptide Comp., USA):
b) Calcium ionophore A23187 (Calbiochem, Bad Soden) acts by increased uptake of calcium ions, and an activation of all calcium-dependent signal cascades in the cell. Lipoxygenase inhibitors, in particular, and generally antiinflammatory substances show effects in this model.
(§3) Preparation of the organ sections and experimental procedure:
(§4) The guinea pig is sacrificed by means of terminal laughing gas anaesthesia. The trachea is exposed along its entire length and cut into 15 individual cartilage rings. 5 rings in each case are tied together to give a chain and fixed in the organ bath under a preload of 3 g. After an equilibration time of 45 minutes, a contraction is produced using the agonist. The antagonist (test preparation) is added cumulatively on the plateau of the maximum. Evaluation is carried out in % force change relative to the contraction maximum. The experimental procedure is carried out at 37° C.; the physiological nutrient solution used is a modified Krebs-Henseleit solution through which is bubbled 95% by volume of O2, 5% by volume of CO2.
(§5) Experimental animals: albino guinea pigs (Hattersheim Animal Breeding Institute, Kastengrund, Germany), weight: 200 to 300 g, sex male or female.
(§6) Vehicle: double-distilled water, ethanol or isopropanol; administration: into the organ bath number of administration: cumulative, in SP individual doses
(§7) All numerical values are indicated in the unit μg/ml and relate to the concentration range of the tested compound of the formula I according to the invention (see example numbers in Table 1) which is necessary in order to cause a dilatation which corresponds to the ED50 range.

Assay [3] relates to isolated guinea pig trachea, agonist PGF2α. Description: antagonist of PGF2α-induced contraction of isolated guinea pig trachea. As to conditions: Cavia porcellus, 37° C., read-out: Anticontractile action (trachea), PGF2α: concentration range for dilatation corresponding to ED50 range. The format is cell-based.
Description: as §1, §2
Inhibition of contractions which are induced by this cyclooxygenase product is only possible by competitive antagonism at the receptor or of the subsequent signal pathway.
as §3, §4, §5, §6, §7

Assay [4] deals with muscle group (gastrocnemius, plantaris and soleus) of the immobilized right rear extremity. Description: rat muscle function test: direct electrical stimulation of muscle group after 3 weeks' immobilization. The format is in vivo, male Wistar rats. As to conditions: oral, 1x per day for 3 weeks, as a rule 25 mg/kg, ≤-12% classified as active. The method in brief:
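Male Wistar rats (about 300 g) had the right hindlimb immobilized in a plastic cast for 3 weeks while dosed orally once daily, usually 25 mg/kg in carboxymethylcellulose. Under pentobarbital, the gastrocnemius/plantaris/soleus group was stimulated directly: isometric force (0.5N preload, 15 min) as area-under-curve, and isotonic work (body-weight preload, 15 min) in J; results as Δ% immobilized vs contralateral muscle.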

For assay [5], the system named is isolated guinea pig trachea, agonist substance P. Description: antagonist of substance P-induced contraction of isolated guinea pig trachea. The note with it: Cavia porcellus, individual doses, 37° C., read-out: Anticontractile action (trachea), SP antagonism: concentration range for dilatation corresponding to ED50 range. The format is cell-based.
Description: as §1, §2
The antagonism is possible on the one hand due to specific receptor antagonists, and on the other hand also due to inhibition of the subsequent signal pathway. Preparations which directly or indirectly increase the intracellular concentration of cyclic nucleotides in particular show spasmolytic properties here.
as §3, §4, §5, §6, §7

Assay [6] deals with isolated guinea pig lung strips, Platelet activating factor (PAF). Description: antagonist of PAF-induced contraction of isolated guinea pig lung strips. The format is cell-based. The note with it: Cavia porcellus, read-out: Anticontractile action (lung), PAF: concentration range corresponding to the IC50 value. Summed up: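 Guinea pig lung strips, 3 mm wide, held at 4 g preload in modified Krebs-Henseleit at 37° C, gassed 95% O2/5% CO2, contracted by PAF or LTD4. Compound given cumulatively at 1, 3, 6 and 10 μg/ml; value is the concentration in μg/ml giving IC50-level effect.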

Converted amounts (≈) assume the structure as drawn.

`CCCn1cnc2c1c(=O)n(CCCCP(=O)(OCC)OCC)c(=O)n2CC` [Example 38, Diethyl [4-(3-ethyl-7-propylxanthin-1-yl)butyl]phosphonate] yielded an Inhibition of mortality in assay [1] of 60%. The EC50 is 10 µg/mL (≈ 24.1 µM) in assay [2], greater than 10 µg/mL in assay [3] and 10 to 30 µg/mL (≈ 24.1 to 72.4 µM) in assay [5]. Also, in assay [4] (isometric stimulation, control difference approx. 25%), the “Force (force under the contraction curve, right/left difference)” value is -10 Δ %. Besides, in assay [4] (isotonic stimulation, control approx. -25%), the “Work (performed work, right/left difference)” value is -3 Δ %. For the same compound, the IC50 in assay [6] was 1 to 3 µg/mL (≈ 2.41 to 7.24 µM).
